“And” between values parts separate entries of the source, which are not always exact repeats. Equal entries are not always repeated. Where two headings read alike, the source gives them in different places.
Legend:
human CHRM2 (M2) = biological target: T1, human CHRM2 (M2) (Homo sapiens, UniProt P08172); test: Eurofins CEREP panel, M2; format: binding; conditions: M2 (h) (antagonist radioligand); test compound concentration 10 uM
T1 construct: purchased Eurofins Cerep (SafetyScreen44), recognised from the panel format
T1 sequence (P08172 1-466): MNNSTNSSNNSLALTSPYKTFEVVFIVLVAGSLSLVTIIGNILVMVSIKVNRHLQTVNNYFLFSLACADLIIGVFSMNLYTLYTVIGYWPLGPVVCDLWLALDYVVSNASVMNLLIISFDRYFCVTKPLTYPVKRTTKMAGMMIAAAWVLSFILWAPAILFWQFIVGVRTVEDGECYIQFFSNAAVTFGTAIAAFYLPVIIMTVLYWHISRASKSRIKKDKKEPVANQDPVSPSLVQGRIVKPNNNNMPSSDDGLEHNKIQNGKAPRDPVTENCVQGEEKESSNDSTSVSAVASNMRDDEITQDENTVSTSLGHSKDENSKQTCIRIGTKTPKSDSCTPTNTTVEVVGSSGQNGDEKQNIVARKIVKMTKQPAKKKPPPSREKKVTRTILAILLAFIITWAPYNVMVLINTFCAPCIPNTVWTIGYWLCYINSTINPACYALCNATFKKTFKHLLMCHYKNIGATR

[1] = In vitro mouse hepatocyte stability; format: in vitro ADME
Source text: Supplement media-1.zip/Hepatocyte_Stability.csv, table | column: clint; t_half

CYP = CYP inhibition; format: in vitro ADME; conditions: In vitro CYP inhibition pooled; for potency: potency class in words
Source text: Supplement media-1.zip/CYP_Inhibition.csv, table | column: ic50; potency

5-HT transporter (h) = biological target: T2, 5-HT transporter (h) (Homo sapiens, UniProt P31645); test: In vitro CEREP profiling, 5-HT transporter (h) (antagonist radioligand); conditions: test compound concentration 10 uM
T2 construct: purchased Eurofins Cerep (SafetyScreen44), recognised from the panel format
T2 sequence (P31645 whole entry): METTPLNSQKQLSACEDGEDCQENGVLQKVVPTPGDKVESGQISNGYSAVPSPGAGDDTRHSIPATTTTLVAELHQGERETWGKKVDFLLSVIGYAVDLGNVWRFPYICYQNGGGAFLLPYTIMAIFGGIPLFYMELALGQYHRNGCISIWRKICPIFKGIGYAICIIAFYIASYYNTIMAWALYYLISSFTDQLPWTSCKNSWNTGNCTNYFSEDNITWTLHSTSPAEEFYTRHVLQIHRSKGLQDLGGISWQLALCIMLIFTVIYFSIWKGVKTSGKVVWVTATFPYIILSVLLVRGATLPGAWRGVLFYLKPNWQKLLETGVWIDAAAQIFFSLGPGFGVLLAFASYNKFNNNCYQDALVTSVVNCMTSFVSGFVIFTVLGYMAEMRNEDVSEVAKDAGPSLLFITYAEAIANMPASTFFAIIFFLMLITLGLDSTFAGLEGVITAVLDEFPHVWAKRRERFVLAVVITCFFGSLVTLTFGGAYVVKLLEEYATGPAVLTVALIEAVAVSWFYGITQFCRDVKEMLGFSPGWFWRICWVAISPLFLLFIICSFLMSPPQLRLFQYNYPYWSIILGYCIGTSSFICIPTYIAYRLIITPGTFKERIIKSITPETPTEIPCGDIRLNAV
Source text: (§1) Supplement media-1.zip/Safety_Panel_Profile.csv, table | column: perc_inhibition

alpha1A (h) = biological target: T3, alpha1A (h) (Homo sapiens, UniProt P35348); test: In vitro CEREP profiling, alpha1A (h) (antagonist radioligand); format: binding; conditions: test compound 10 uM
T3 construct: purchased Eurofins Cerep (SafetyScreen44), recognised from the panel format
T3 sequence (P35348 1-466): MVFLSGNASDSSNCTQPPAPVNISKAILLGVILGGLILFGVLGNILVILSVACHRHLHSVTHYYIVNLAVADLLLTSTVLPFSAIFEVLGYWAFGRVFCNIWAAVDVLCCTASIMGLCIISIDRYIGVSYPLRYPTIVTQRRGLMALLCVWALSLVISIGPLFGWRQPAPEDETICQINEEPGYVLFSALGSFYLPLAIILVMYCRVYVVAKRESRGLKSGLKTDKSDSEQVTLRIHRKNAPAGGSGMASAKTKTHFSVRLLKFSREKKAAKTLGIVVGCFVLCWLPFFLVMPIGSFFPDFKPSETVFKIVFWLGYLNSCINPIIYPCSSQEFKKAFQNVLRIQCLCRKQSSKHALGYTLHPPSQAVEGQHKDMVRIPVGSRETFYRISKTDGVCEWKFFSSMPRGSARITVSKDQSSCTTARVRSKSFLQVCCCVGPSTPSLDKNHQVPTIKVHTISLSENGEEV
Source text: as §1

5-HT2A (h) = biological target: T4, 5-HT2A (h) (Homo sapiens, UniProt P28223); test: In vitro CEREP profiling, 5-HT2A (h) (agonist radioligand); format: binding; conditions: test compound concentration 10 uM
T4 construct: purchased Eurofins Cerep (SafetyScreen44), recognised from the panel format
T4 sequence (P28223 whole entry): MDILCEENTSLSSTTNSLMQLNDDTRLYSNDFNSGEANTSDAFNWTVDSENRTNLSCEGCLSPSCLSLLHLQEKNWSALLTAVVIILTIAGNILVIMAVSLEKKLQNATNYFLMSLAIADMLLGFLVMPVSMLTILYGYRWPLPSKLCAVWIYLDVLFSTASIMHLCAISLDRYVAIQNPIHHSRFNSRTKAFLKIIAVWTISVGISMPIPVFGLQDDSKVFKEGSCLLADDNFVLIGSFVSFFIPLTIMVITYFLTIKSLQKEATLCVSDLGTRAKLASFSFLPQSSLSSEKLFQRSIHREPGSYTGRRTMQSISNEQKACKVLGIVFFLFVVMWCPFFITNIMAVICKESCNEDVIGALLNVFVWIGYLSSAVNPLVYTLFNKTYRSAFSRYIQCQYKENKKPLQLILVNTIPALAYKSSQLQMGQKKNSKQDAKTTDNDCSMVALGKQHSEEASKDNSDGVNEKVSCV
Source text: as §1

5-HT3 (h) = biological target: T5, 5-HT3 (h) (Homo sapiens, UniProt P46098); test: In vitro CEREP profiling, 5-HT3 (h) (antagonist radioligand); format: binding; conditions: test compound concentration 10 uM
T5 construct: purchased Eurofins Cerep (SafetyScreen44), recognised from the panel format
T5 sequence (P46098 24-478): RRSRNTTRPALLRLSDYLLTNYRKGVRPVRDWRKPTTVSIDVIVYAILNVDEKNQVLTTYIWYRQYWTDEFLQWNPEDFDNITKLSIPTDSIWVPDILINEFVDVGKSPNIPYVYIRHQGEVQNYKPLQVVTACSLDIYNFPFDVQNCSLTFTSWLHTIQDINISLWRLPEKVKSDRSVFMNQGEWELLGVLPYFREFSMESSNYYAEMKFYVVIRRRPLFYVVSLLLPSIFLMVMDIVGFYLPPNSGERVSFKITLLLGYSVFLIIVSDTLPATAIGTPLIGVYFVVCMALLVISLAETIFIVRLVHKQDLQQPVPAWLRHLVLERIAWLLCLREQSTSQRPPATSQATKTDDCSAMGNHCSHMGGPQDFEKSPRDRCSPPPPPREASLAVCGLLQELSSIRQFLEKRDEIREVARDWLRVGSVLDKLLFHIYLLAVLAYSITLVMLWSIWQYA
Source text: as §1

V1a (h) = biological target: T6, V1a (h) (Homo sapiens, UniProt P37288); test: In vitro CEREP profiling, V1a (h) (agonist radioligand); format: binding; conditions: test compound concentration 10 uM
T6 construct: purchased Eurofins Cerep (SafetyScreen44), recognised from the panel format
T6 sequence (P37288 whole entry): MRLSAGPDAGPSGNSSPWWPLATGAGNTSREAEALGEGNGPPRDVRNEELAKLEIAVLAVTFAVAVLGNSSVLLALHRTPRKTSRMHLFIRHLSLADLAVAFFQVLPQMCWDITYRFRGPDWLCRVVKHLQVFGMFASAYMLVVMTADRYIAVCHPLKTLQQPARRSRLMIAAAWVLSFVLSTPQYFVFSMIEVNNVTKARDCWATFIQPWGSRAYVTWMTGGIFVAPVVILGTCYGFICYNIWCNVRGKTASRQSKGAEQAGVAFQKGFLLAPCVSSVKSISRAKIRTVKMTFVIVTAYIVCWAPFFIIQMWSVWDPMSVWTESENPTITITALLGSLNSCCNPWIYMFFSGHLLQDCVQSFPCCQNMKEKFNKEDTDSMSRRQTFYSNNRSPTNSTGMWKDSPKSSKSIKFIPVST
Source text: as §1

CCK1 (CCKA) (h) = biological target: T7, CCK1 (CCKA) (h) (Homo sapiens, UniProt P32238); test: In vitro CEREP profiling, CCK1 (CCKA) (h) (agonist radioligand); format: binding; conditions: test compound 10 uM
T7 construct: purchased Eurofins Cerep (SafetyScreen44), recognised from the panel format
T7 sequence (P32238 1-428): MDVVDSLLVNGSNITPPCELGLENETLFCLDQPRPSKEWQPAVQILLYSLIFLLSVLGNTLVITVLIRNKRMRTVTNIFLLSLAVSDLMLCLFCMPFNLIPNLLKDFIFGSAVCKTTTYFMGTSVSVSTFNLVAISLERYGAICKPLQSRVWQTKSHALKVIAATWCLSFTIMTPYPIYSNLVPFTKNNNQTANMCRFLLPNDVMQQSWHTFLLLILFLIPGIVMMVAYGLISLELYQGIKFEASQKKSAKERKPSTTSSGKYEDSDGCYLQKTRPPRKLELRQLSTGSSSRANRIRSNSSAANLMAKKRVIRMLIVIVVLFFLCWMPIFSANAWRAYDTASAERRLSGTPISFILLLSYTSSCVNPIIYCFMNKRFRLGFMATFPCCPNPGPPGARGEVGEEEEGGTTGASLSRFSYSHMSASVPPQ
Source text: as §1

[2] = biological target: T8, Potassium Channel hERG (human) (Homo sapiens, UniProt Q12809); test: In vitro CEREP profiling, Potassium Channel hERG (human)- [3H] Dofetilide; format: binding; conditions: test compound concentration 10 uM
T8 construct: purchased Eurofins Cerep (SafetyScreen44), recognised from the panel format
T8 sequence (Q12809 whole entry): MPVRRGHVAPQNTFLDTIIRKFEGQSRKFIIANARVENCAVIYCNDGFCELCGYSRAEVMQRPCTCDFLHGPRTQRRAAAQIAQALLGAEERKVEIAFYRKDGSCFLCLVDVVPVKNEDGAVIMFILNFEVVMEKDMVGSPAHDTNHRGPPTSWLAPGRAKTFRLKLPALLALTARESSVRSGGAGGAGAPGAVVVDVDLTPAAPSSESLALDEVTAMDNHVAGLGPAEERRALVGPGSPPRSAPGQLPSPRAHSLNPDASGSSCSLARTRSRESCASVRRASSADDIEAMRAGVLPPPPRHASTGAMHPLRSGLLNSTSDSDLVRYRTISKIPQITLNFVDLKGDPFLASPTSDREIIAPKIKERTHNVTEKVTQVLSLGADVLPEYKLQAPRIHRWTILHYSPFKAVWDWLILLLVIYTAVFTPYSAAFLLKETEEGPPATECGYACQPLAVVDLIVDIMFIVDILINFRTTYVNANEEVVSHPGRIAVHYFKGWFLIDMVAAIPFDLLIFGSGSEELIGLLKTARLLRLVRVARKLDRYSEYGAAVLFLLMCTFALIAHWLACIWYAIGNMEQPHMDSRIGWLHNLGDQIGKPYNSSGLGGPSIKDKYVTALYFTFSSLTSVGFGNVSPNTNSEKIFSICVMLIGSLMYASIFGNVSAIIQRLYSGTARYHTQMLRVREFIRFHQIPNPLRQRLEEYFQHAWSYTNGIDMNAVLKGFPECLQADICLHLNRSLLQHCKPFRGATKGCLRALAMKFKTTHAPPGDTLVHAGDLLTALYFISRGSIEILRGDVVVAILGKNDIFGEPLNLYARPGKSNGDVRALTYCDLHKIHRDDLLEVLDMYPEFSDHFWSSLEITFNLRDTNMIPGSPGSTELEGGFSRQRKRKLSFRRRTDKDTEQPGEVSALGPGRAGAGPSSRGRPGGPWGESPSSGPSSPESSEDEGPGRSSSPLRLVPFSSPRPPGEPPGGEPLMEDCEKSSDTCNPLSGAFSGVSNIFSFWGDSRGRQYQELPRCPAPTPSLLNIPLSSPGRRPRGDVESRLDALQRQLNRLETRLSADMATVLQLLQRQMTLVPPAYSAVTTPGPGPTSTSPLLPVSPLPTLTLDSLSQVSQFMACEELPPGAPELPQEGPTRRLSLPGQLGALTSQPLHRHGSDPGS
Source text: as §1

HeLa-ACE2 cells = conditions: for perc_max_measured: highest measured response of the dose series; for perc_min_measured: lowest measured response of the dose series
D2S (h) = biological target: T9, D2S (h) (Homo sapiens, UniProt P14416); test: In vitro CEREP profiling, D2S (h) (agonist radioligand); format: binding; conditions: test compound 10 uM
T9 construct: purchased Eurofins Cerep (SafetyScreen44), recognised from the panel format
T9 sequence (P14416 1-414 isoform P14416-2): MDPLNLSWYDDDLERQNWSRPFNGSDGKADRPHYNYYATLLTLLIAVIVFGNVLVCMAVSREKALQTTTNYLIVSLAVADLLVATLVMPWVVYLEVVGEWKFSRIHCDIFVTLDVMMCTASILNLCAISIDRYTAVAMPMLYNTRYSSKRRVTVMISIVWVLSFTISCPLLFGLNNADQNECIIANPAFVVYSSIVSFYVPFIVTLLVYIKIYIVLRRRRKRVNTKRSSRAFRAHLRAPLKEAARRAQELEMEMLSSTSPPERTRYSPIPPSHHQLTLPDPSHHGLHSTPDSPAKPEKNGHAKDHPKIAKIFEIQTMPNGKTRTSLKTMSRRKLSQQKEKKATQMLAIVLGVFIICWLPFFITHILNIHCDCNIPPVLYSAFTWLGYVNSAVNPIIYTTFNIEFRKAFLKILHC
Source text: as §1

[3] = protocol HeLa-ACE2 cytotoxicity

Row | Structure (SMILES) | perc_inhibition (% inhibition of the binding of a ligand specific for each target) (human CHRM2 (M2)) [%] | clint [1] [uL/min/1E6 cells] | t_half [1] [min] | IC50 (CYP; isoform 1A2) [µM] | potency (CYP; isoform 1A2) | IC50 (CYP; isoform 2C9) [µM] | potency (CYP; isoform 2C9) | IC50 (CYP; isoform 2C19) [µM] | potency (CYP; isoform 2C19) | IC50 (CYP; isoform 2D6) [µM] | potency (CYP; isoform 2D6) | IC50 (CYP; isoform 3A4) [µM] | potency (CYP; isoform 3A4) | perc_inhibition: % inhibition of the binding of a ligand specific for each target, 5-HT transporter (h) (antagonist radioligand) (5-HT transporter (h)) [%] | perc_inhibition (% inhibition of the binding of a ligand specific for each target) (alpha1A (h)) [%] | perc_inhibition (% inhibition of the binding of a ligand specific for each target) (5-HT2A (h)) [%] | perc_inhibition (% inhibition of the binding of a ligand specific for each target) (5-HT3 (h)) [%] | perc_inhibition (% inhibition of the binding of a ligand specific for each target) (V1a (h)) [%] | perc_inhibition (% inhibition of the binding of a ligand specific for each target) (CCK1 (CCKA) (h)) [%] | perc_inhibition (% inhibition of the binding of a ligand specific for each target) [2] [%] | further results
1 | CNCc1cc(-c2cc3c(N[C@@H](c4ccc5c(c4)S(=O)(=O)CCC5)C(C)C)ncnc3[nH]2)co1 [ASAP-0011176] | 52 | 74.7 | 9.27 | 49.3 | weak | 5.25 | moderate | 22.6 | weak | 9.03 | moderate | 1.81 | moderate-potent | 24 | 50 | 29 | 0 | 13 | -24 | 26 | CC50 (HeLa-ACE2 cells; HeLa-ACE2 cytotoxicity): > 20 µM; cc10 (HeLa-ACE2 cells; HeLa-ACE2 cytotoxicity): > 20.0 µM; perc_max_measured (HeLa-ACE2 cells; HeLa-ACE2 cytotoxicity): 120.991%; perc_min_measured (HeLa-ACE2 cells; HeLa-ACE2 cytotoxicity): 77.721%; CC50 (HeLa-ACE2 cells; [3]): > 20 µM; cc10 (HeLa-ACE2 cells; [3]): > 20.0 µM; perc_max_measured (HeLa-ACE2 cells; [3]): 106.042%; perc_min_measured (HeLa-ACE2 cells; [3]): 91.552%; perc_inhibition (% inhibition of the binding of a ligand specific for each target) (D2S (h)): -9%
2 | Cn1ncc(-c2cc3c(N[C@@H](c4ccc5c(n4)OCCO5)C(C)(C)C)ncnc3[nH]2)c1C#N [ASAP-0011221] | 25 | 292.0 | 2.37 | > 50 | weak | 42.6 | weak | > 50 | weak | 20.5 | weak | 8.79 | moderate | 2 | 54 | -2 | 3 | 57 | 4 | 36 | CC50 (HeLa-ACE2 cells; HeLa-ACE2 cytotoxicity): > 20 µM; cc10 (HeLa-ACE2 cells; HeLa-ACE2 cytotoxicity): > 10.0 µM and > 20.0 µM; perc_max_measured (HeLa-ACE2 cells; HeLa-ACE2 cytotoxicity): 97.859% and 124.489%; perc_min_measured (HeLa-ACE2 cells; HeLa-ACE2 cytotoxicity): 51.321% and 74.575%; perc_inhibition (% inhibition of the binding of a ligand specific for each target) (D2S (h)): 13%

Source: publication doi:10.1101/2024.08.19.608619, “Discovery of potent SARS-CoV-2 nsp3 macrodomain inhibitors uncovers lack of translation to cellular antiviral response” (bioRxiv, 2024)
